From ChEMBL document CHEMBL1152247, “Identification of novel inhibitors of extracellular signal-regulated kinase 2 based on the structure-based virtual screening” (Bioorg Med Chem Lett, 2008) come the findings set out here.

The target in assay [1] is T1, Mitogen-activated protein kinase 1 (Homo sapiens, UniProt P28482). Briefly: Inhibition of recombinant ERK2 at 100 uM.
The target of assay [2] is T1, Mitogen-activated protein kinase 1. Briefly: Inhibition of recombinant ERK2.
In assay [3] the target is Mitogen-activated protein kinase 14 (Homo sapiens) (UniProt Q16539). Briefly: Inhibition of p38-alpha at 100 uM.
Sequence of Mitogen-activated protein kinase 14 (Homo sapiens) (Q16539 whole entry): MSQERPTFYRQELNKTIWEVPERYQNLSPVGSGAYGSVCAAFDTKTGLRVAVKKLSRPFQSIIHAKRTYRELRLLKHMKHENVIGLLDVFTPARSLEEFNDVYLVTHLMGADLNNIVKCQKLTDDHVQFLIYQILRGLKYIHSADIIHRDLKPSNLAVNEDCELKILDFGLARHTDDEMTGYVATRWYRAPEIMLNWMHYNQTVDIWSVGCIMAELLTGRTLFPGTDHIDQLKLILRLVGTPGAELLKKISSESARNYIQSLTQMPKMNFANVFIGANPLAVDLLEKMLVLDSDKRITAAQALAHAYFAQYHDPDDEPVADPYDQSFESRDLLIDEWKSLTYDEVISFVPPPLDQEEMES

T1 sequence (P28482 whole entry): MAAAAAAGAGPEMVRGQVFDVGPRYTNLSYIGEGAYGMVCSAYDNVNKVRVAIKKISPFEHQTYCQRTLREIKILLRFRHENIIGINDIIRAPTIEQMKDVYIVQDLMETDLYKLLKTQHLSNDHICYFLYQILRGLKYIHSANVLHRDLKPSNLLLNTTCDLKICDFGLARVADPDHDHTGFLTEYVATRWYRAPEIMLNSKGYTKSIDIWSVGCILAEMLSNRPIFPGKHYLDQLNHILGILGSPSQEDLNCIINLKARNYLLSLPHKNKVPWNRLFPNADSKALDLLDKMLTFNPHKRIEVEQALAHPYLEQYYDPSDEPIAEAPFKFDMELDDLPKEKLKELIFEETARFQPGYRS

With `O=C1/C(=C/c2ccc(O)cc2)SC(=S)N1Cc1ccccc1`, the inhibition in assay [1] came out at 92.7%; in assay [3], 16.7%. For the same compound, the IC50 in assay [2] was determined as 5.5 µM.

On to `O=C1/C(=C/C=C/c2ccccc2)SC(=S)N1Cc1ccc2c(c1)OCO2`, for which the IC50 in assay [2] is 23.7 µM.

As to `COc1ccccc1-c1c[nH]nc1-c1ccc(OCc2ccccc2F)cc1O`, the half-inhibitory concentration (IC50) in assay [2] turned out to be 27.4 µM. As for `O=C(/C=C/c1ccccc1)Nc1nc(NC(=O)c2ccccc2)nn1-c1ccccc1`, in assay [2], the IC50 turned out to be 25.6 µM. As for `O=C(Nc1nc(NC(=O)c2ccco2)n(-c2ccccc2)n1)c1ccccc1`, in assay [2], the half-inhibitory concentration (IC50) amounted to 18.3 µM.

Regarding `O=C(Nc1nc(NC(=O)c2ccccc2)n(-c2ccccc2)n1)c1ccccc1`, the inhibition in assay [1] came to 93.1%; in assay [3] it was 24.5%. Also, the IC50 in assay [2] is 8.3 µM. In the case of `COc1cc(/C=C2\SC(=S)N(Cc3ccccc3)C2=O)ccc1O`, in assay [2], the IC50 stood at 14.3 µM. As for `Cc1ccc(COc2ccc(-c3n[nH]cc3-c3ccccc3)c(O)c2)cc1`, the inhibition in assay [1] is 87.9%; in assay [3] it was 12.3%. In assay [2], the IC50 was found to be 16.9 µM.
